Molecular target: T1, human renal renin (Homo sapiens, UniProt P00797)
T1 construct: human renal renin, free from acid proteolytic activity; from tissue; host or cells: human kidney (from the word 'renal')
T1 sequence (P00797 67-406): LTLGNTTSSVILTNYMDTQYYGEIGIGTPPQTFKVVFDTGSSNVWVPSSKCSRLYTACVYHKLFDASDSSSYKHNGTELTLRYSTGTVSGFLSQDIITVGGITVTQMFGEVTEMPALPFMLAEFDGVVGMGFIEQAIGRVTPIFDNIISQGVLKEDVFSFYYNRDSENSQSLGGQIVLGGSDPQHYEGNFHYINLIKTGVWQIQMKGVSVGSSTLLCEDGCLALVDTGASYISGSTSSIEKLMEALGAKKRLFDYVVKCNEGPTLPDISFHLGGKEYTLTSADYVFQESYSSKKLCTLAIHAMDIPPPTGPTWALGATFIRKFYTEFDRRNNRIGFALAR
Assay: inhibition of human renal renin in vitro, angiotensin I formed measured by radioimmunoassay
Format: biochemical
Conditions: human renal renin with human renin substrate (angiotensinogen), 37° C., pH 6.0
Description: At the end of the incubation, the amount of angiotensin I formed is measured by radioimmunoassay and the molor concentration required to cause 50% inhibition, expressed as the IC50, is calculated.

| IC50 [nM] | Compound |
| --- | --- |
| 2500 | CC(C)CCS(=O)(=O)CC[C@H](O)[C@H](CC(C)C)NC(=O)[C@H](C)NC(=O)[C@H](Cc1ccccc1)NC(=O)OC(C)(C)C [Example 19, Boc-Phe-Ala amide of (3S,4S)-4-amino-3-hydroxy-1-isoamylsulfonyl-6-methylheptane] |
| 1 | CC(C)CC(NC(=O)C(Cc1ccccc1)NC(=O)OC(C)(C)C)C(=O)N[C@@H](CC1CCCCC1)C(=O)C(F)(F)CS(=O)(=O)C(C)C (stereo partly drawn) [Example 95, Boc-Phe-Leu amide of (4S)-3-oxo-4-amino-2,2-difluoro-1-isopropylsulfonyl-5-cyclohexylpentane] |
| 100 | Boc-Phe-His amide of (3S,4S)-4-amino-3-hydroxy-11-isoamylsulfonyl-6-methylheptane [Example 22] |
| 5500 | CC(C)CCSCC[C@H](O)[C@H](CC(C)C)NC(=O)[C@H](C)NC(=O)[C@H](Cc1ccccc1)NC(=O)OC(C)(C)C [Example 17, Boc-Phe-Ala amide of (3S,4S)-4-amino-3-hydroxy-1-isoamylmercapto-6-methylheptane] |
| 25 | CC(C)C[C@H](NC(=O)[C@H](Cc1ccccc1)NC(=O)OC(C)(C)C)C(=O)N[C@@H](CC1CCCCC1)[C@@H](O)C(F)(F)CSC(C)C [Example 83(A), Boc-Phe-Leu amide of (3R,4S)-3-hydroxy-4-amino-2,2-difluoro-1-isopropylmercapto-5-cyclohexylpentane] |
| 20 | CC(C)(C)OC(=O)NC(Cc1ccccc1)C(=O)NC(Cc1cnc[nH]1)C(=O)N[C@@H](CC1CCCCC1)[C@@H](O)CCN=[N+]=[N-] (stereo partly drawn) [Example 125, Boc-Phe-His Amide of (3S,4S)-1-Azido-3-hydroxy-4-amino-5-cyclohexylpentane] |
| 25 | CC(C)S(=O)(=O)NCC[C@H](O)[C@H](CC1CCCCC1)NC(=O)C(Cc1cnc[nH]1)NC(=O)C(Cc1ccccc1)NC(=O)OC(C)(C)C (stereo partly drawn) [Example 50, Boc-Phe-His Amide of (3S,4S)-1-(2-propylsulfonylamino)-3-hydroxy-4-amino-5-cyclohexylpentane] |
| 2.5 | CC(C)CC(NC(=O)C(Cc1ccccc1)NC(=O)OC(C)(C)C)C(=O)N[C@@H](CC1CCCCC1)C(=O)C(F)(F)CSC(C)C (stereo partly drawn) [Example 93, Boc-Phe-Leu amide of (4S)-3-oxo-4-amino-2,2-difluoro-1-isopropylmercapto-5-cyclohexylpentane] |
| 15 | Boc-Phe-3-methyl-His Amide of (3S,4S)-1-(3-Methylbutylcarbonylamino)-3-hydroxy-4-amino-5-cyclohexylpentane [Example 52] |
| 2 | CC(C)CCC(=O)NCC(F)(F)C(=O)[C@H](CC1CCCCC1)NC(=O)[C@H](CC(C)C)NC(=O)[C@H](Cc1ccccc1)NC(=O)OC(C)(C)C [Example 94, Boc-Phe-Leu amide of (4S)-3-oxo-4-amino-2,2-difluoro-1-isopentylcarbonylamino-5-cyclohexylpentane] |
| 6 | Boc-Phe-dl-3-pyrazolylalanine Amide of (3S,4S)-1-(3-Methylbutylcarbonylamino)-3-hydroxy-4-amino-5-cyclohexylpentane [Example 58] |
| 20 | CC(C)C[C@H](NC(=O)[C@H](Cc1ccccc1)NC(=O)OC(C)(C)C)C(=O)N[C@@H](CC1CCCCC1)C(=O)/C(F)=C/S(=O)(=O)C(C)C [Example 96, Boc-Phe-Leu amide of (Z,4S)-3-oxo-4-amino-2-fluoro-1-isopropylsulfonyl-5-cyclohexyl-1-pentene] |

| Compound | IC50 [nM] |
| --- | --- |
| CC(C)CCNC(=O)C(CC(O)C(CC(C)C)NC(=O)C(C)NC(=O)C(Cc1ccccc1)NC(=O)OC(C)(C)C)c1ccccc1 (stereo not drawn) [Example 46, Boc-Phe-Ala amide of 5-amino-4-hydroxy-77-methyl-2-phenyloctanoic acid isoamyl amide] | 3000 |

Source: patent publication US4857507A, “Angiotensinogen analogs” (Abbott Laboratories, priority 1987, dated 1989)
